In ChEMBL document CHEMBL1145537, “Combination of tigecycline and N-acetylcysteine reduces biofilm-embedded bacteria on vascular catheters” (Antimicrob Agents Chemother, 2007):
Calls of active or inactive are those of the source.

Tests used:
Format in all cases: functional, organism-based
Staphylococcus aureus [1] = assay: Antimicrobial activity against catheter-associated biofilm of methicillin-resistant Staphylococcus aureus
Klebsiella pneumoniae [2] = assay: Antimicrobial activity against catheter-associated biofilm of Klebsiella pneumoniae
[3] = test system: Staphylococcus epidermidis; assay: Antimicrobial activity against catheter-associated biofilm of methicillin-resistant Staphylococcus epidermidis
Klebsiella pneumoniae [4] = assay: Antimicrobial activity against catheter-associated biofilm of Klebsiella pneumoniae assessed as reduction of CFU
Staphylococcus aureus [5] = assay: Antimicrobial activity against catheter-associated biofilm of methicillin-sensitive Staphylococcus aureus assessed as reduction of CFU
Staphylococcus aureus [6] = assay: Antimicrobial activity against catheter-associated biofilm of methicillin-resistant Staphylococcus aureus assessed as reduction of CFU
Acinetobacter baumannii = assay: Antimicrobial activity against catheter-associated biofilm of Acinetobacter baumannii assessed as reduction of CFU
[7] = test system: Staphylococcus epidermidis; assay: Antimicrobial activity against catheter-associated biofilm of methicillin-resistant Staphylococcus epidermidis assessed as reduction of CFU

Measured: Activity

CC(=O)N[C@@H](CS)C(=O)O
active: Staphylococcus aureus [1] | Klebsiella pneumoniae [2] | [3]

CN(C)c1cc(NC(=O)CNC(C)(C)C)c(O)c2c1C[C@H]1C[C@H]3[C@H](N(C)C)C(O)=C(C(N)=O)C(=O)[C@@]3(O)C(O)=C1C2=O
active: Klebsiella pneumoniae [4] | Staphylococcus aureus [5] | Staphylococcus aureus [6] | Acinetobacter baumannii | [7]
